Results taken from patent US11679107B2 (Eisai R&D Management Co., Ltd., priority 2018, dated 2023).
Read-outs that look alike come from different tables or passages of the source.

What was measured:
SF3b complexes = target: T1, SF3b complexes (Homo sapiens, UniProt O75533+Q7RTV0); experiment: Scintillation proximity assay (SPA) with [3H]-labelled pladienolide probe; type: binding; details: SF3B1 (WT); geometric mean; read-out: SPA-ATS GMean IC50 (nM) SF3B1 (WT)
T1 construct: endogenous in cells; host or cells: Nuclear extracts; A HeLa S3 extract preparation is described for the in vitro splicing assay
Outline: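 SF3b complexes captured from nuclear extracts on anti-SF3B1 antibody SPA beads; test compounds pre-incubated 30 min before 2.5 nM [3H]-pladienolide probe added, then 30 min incubation. Bound probe read by scintillation; values from non-linear regression of concentration–response curves.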

[1] = system: Panc 05.04 cells (SF3b K700E mutant); experiment: Cell proliferation and viability, CellTiter-Glo, 72 hours; type: cell-based; details: for GI50: geometric mean
Outline: (§1)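 Cells grown in RPMI-1640 with 10% FBS (Panc 05.04 with added insulin, 15% FBS total) were exposed to an 11-point half-log dilution, typically 10 μM–100 pM, at 0.1% DMSO for 72 h at 37 °C. ATP content was read by CellTiter-Glo luminescence. Percent inhibition was set against a time-zero plate and DMSO vehicle wells, on a −100% (cidal) to 100% (uninhibited growth) scale.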

[2] = system: NCI-H1568 cells (high MCL1); experiment: as above; type: cell-based; details: for GI50: geometric mean
Outline: as §1

[3] = system: Ad2 variant pre-mRNAs spliced in HeLa S3 nuclear extracts; experiment: In vitro splicing assay (IVS), RT-qPCR of spliced product; type: biochemical; details: for IC50: geometric mean; for Ratio Ad2.1/2.2: ratio of IVS IC50 Ad2.1 to Ad2.2
Outline: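 Ad2 variant pre-mRNA (2 ng) with FTZΔi control RNA in HeLa S3 nuclear extract (8 μg) was pre-incubated with compound or DMSO for 15 min at 30 °C. Splicing ran 90 min at 30 °C after adding 0.5 mM ATP, creatine phosphate and MgCl2. Spliced product was quantified by TaqMan RT-qPCR, normalized to DMSO, and curve-fitted.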

[4] = PANC0504.1 cells, 72 h, −100% cidal, 0% static, 100% maximal growth
[5] = Panc 05.04, read-out: CTGlo-ATS GMean GI50 (nM) 72 h PANC0504.1, PANC0504.1 cells, 72 h
[6] = NCI-H1568, read-out: CTGlo-ATS GMean GI50 (nM) 72 h NCIH1568.1, NCIH1568.1 cells, 72 h
[7] = NCIH1568.1 cells, 72 h, −100% cidal, 0% static, 100% maximal growth
[8] = Ad2.1 pre-mRNA substrate, read-out: qPCR-IVS-ATS GMean IC50 (nM) Ad2.1
[9] = Ad2.2 pre-mRNA substrate, read-out: qPCR-IVS-ATS GMean IC50 (nM) Ad2.2
[10] = Panc 05.04, 72 h, read-out: CTGlo-ATS GMean GI50 (nM) 72 h PANC0504.1, PANC0504.1 cells, 72 h
[11] = NCI-H1568, 72 h, read-out: CTGlo-ATS GMean GI50 (nM) 72 h NCIH1568.1, NCIH1568.1 cells, 72 h
[12] = 72 h, PANC0504.1, -100% = cidal, 0% = static, 100% = uninhibited growth
[13] = Panc 05.04, read-out: CTGlo-ATS GMean GI50 (nM) 72 h PANC0504.1, 72 h, PANC0504.1
[14] = 72 h, NCIH1568.1, -100% = cidal, 0% = static, 100% = uninhibited growth
[15] = NCI-H1568, read-out: CTGlo-ATS GMean GI50 (nM) 72 h NCIH1568.1, 72 h, NCIH1568.1

SMILES | IC50 (SF3b complexes) | CTGlo-ATS Mean MinResponse % 72 h PANC0504.1 [1, 4] | GI50 [1, 5] | GI50 [2, 6] | CTGlo-ATS Mean MinResponse % 72 h NCIH1568.1 [2, 7] | IC50 [3, 8] | IC50 [3, 9] | GI50 [1, 10] | GI50 [2, 11] | CTGlo-ATS Mean MinResponse % 72 h PANC0504.1 [1, 12] | GI50 [1, 13] | CTGlo-ATS Mean MinResponse % 72 h NCIH1568.1 [2, 14] | GI50 [2, 15] | Ratio Ad2.1/2.2 [3]
C/C(=C\c1cc(F)cc(N2CCOC[C@@H]2C)c1)[C@H]1OC(=O)C[C@H](O)CC[C@H](C)[C@@H](OC(=O)N2CCN(C)CC2)/C=C/[C@@H]1C [Compound 83] | 4.57 nM | −94.723% | 15.6 nM | 17.3 nM | −68.447% | 159 nM | 49 nM |  |  |  |  |  |  | 
C/C(=C\c1cc(F)cc(N2CCN(S(=O)(=O)c3ccc4ccn(C)c4c3)CC2)c1)[C@H]1OC(=O)C[C@H](O)CC[C@H](C)[C@@H](OC(=O)N2CCN(C)CC2)/C=C/[C@@H]1C [Compound 115] | 144 nM | −97.417% | 85.2 nM | 88.9 nM | −93.625% | 335 nM | 233 nM |  |  |  |  |  |  | 
C/C(=C\c1cc(F)cc(N2CCN(CCO)CC2)c1)[C@H]1OC(=O)C[C@H](O)CC[C@H](C)[C@@H](OC(=O)N2CCOCC2)/C=C/[C@@H]1C [Compound 53] | 14.1 nM | −92.947% | 81.1 nM | 81.8 nM | −59.250% | 1910 nM | 30.5 nM |  |  |  |  |  |  | 
C/C(=C\c1cc(F)cc(N2CCOC(C)C2)c1)[C@H]1OC(=O)C[C@H](O)CC[C@H](C)[C@@H](OC(=O)N2CCN(C)CC2)/C=C/[C@@H]1C (stereo partly drawn) [Compound 70] | 1.55 nM | −83.969% |  |  | −77.042% | 17.6 nM | 16.5 nM | 5.94 nM | 3.37 nM |  |  |  |  | 
C/C(=C\c1cc(F)cc(N(C)C2CCN(C)CC2)c1)[C@H]1OC(=O)C[C@H](O)CC[C@H](C)[C@@H](OC(=O)N2CCN(C)CC2)/C=C/[C@@H]1C [Compound 31] | 43.2 nM | −90.716% | 53 nM | 89.4 nM | −98.108% | 50.1 nM | 14.6 nM |  |  |  |  |  |  | 
C/C(=C\c1cc(F)cc(N2CCOCC2)c1)[C@H]1OC(=O)C[C@H](O)CC[C@H](C)[C@@H](OC(=O)N2CCN(C3CCC3)CC2)/C=C/[C@@H]1C [Compound 26] | 11.4 nM | −88.278% |  |  | −68.566% | 107 nM | 43.5 nM | 19 nM | 26.5 nM |  |  |  |  | 
C/C(=C\c1cc(F)cc(N2CCS(=O)(=O)CC2)c1)[C@H]1OC(=O)C[C@H](O)CC[C@H](C)[C@@H](OC(=O)N2CCN(C)CC2)/C=C/[C@@H]1C [Compound 52] | 8.3 nM | −76.609% |  |  | −63.079% | 39.6 nM | 45.4 nM | 13.6 nM | 23.3 nM |  |  |  |  | 
C/C(=C\c1cc(F)c2nn(C3CCOCC3)nc2c1)[C@H]1OC(=O)C[C@H](O)CC[C@H](C)[C@@H](OC(=O)N2CCN(C)CC2)/C=C/[C@@H]1C [Compound 141] | 13 nM | −94.865% | 72.4 nM | 48.8 nM | −63.745% | > 25000 nM | 61.3 nM |  |  |  |  |  |  | 
C/C(=C\c1cc(F)cc(N2CCN(C(=O)c3cnco3)CC2)c1)[C@H]1OC(=O)C[C@H](O)CC[C@H](C)[C@@H](OC(=O)N2CCN(C)CC2)/C=C/[C@@H]1C [Compound 123] | 1.7 nM | −71.328% | 2.75 nM | 2.26 nM | −86.056% | 16.5 nM | 13.1 nM |  |  |  |  |  |  | 
C/C(=C\c1cc(F)c2nn(CC3CC3)nc2c1)[C@H]1OC(=O)C[C@H](O)CC[C@H](C)[C@@H](OC(=O)N2CCN(C)CC2)/C=C/[C@@H]1C [Compound 138] | 8.7 nM | −85.916% | 120 nM | 70.3 nM | −80.330% | > 25000 nM | 57.5 nM |  |  |  |  |  |  | 
C/C(=C\c1cc(F)cc(N2CCOCC2)c1)[C@H]1OC(=O)C[C@H](O)CC[C@H](C)[C@@H](OC(=O)N2CC[C@@H](F)C2)/C=C/[C@@H]1C [Compound 247, [(2S,3S,4E,6R,7S,10R)-2-[(E)-1-(3-fluoro-5-morpholin-4-ylphenyl)prop-1-en-2-yl]-10-hydroxy-3,7-dimethyl-12-oxo-1-oxacyclododec-4-en-6-yl] (3R)-3-fluoropyrrolidine-1-carboxylate] | 14.4 nM |  |  |  |  | 50.8 nM | 34.6 nM |  |  | −77.509% | 40.5 nM | −67.545% | 31.4 nM | 1.467
C/C(=C\c1cc(F)c2cnn(CC(=O)N(C)C)c2c1)[C@H]1OC(=O)C[C@H](O)CC[C@H](C)[C@@H](OC(=O)N2CCN(C)CC2)/C=C/[C@@H]1C [Compound 132] | 4.91 nM | −94.673% | 13.6 nM | 11.5 nM | −68.423% | 34.1 nM | 12.8 nM |  |  |  |  |  |  | 
C/C(=C\c1cc(F)cc(NC(=O)CC2CC2)c1)[C@H]1OC(=O)C[C@H](O)CC[C@H](C)[C@@H](OC(=O)N2CCN(C)CC2)/C=C/[C@@H]1C [Compound 250, [(2S,3S,4E,6R,7S,10R)-2-[(E)-1-[3-[(2-cyclopropylacetyl)amino]-5-fluorophenyl]prop-1-en-2-yl]-10-hydroxy-3,7-dimethyl-12-oxo-1-oxacyclododec-4-en-6-yl] 4-methylpiperazine-1-carboxylate] | 3.63 nM |  |  |  |  | 2190 nM | 44.1 nM |  |  | −94.381% | 23.1 nM | −58.677% | 15.6 nM | 49.517
C/C(=C\c1cc(F)cc(N2CCC[C@@H]2C)c1)[C@H]1OC(=O)C[C@H](O)CC[C@H](C)[C@@H](OC(=O)N2CCN(C)CC2)/C=C/[C@@H]1C [Compound 43] | 12 nM | −88.777% |  |  | −36.254% | > 25000 nM | 139 nM | 57.5 nM | 89.1 nM |  |  |  |  | 
C/C(=C\c1cc(F)cc(N2CCC[C@H]2C)c1)[C@H]1OC(=O)C[C@H](O)CC[C@H](C)[C@@H](OC(=O)N2CCN(C)CC2)/C=C/[C@@H]1C [Compound 41] | 8.26 nM | −82.009% |  |  | −77.375% | 221 nM | 39.2 nM | 15.8 nM | 21.4 nM |  |  |  |  | 
C/C(=C\c1cccc(COC(=O)N2CCC3(COC3)C2)c1)[C@H]1OC(=O)C[C@H](O)CC[C@H](C)[C@@H](OC(=O)N2CCN(C)CC2)/C=C/[C@@H]1C [Compound 255, [3-[(E)-2-[(2S,3S,4E,6R,7S,10R)-10-hydroxy-3,7-dimethyl-6-(4-methylpiperazine-1-carbonyl)oxy-12-oxo-1-oxacyclododec-4-en-2-yl]prop-1-enyl]phenyl]methyl 2-oxa-7-azaspiro[3.4]octane-7-carboxylate] | 7.32 nM |  |  |  |  |  |  |  |  | −61.401% | 65.8 nM | −24.942% | 67.6 nM | 
C/C(=C\c1cc(F)cc(N2CCN(S(=O)(=O)c3cn(C)cn3)CC2)c1)[C@H]1OC(=O)C[C@H](O)CC[C@H](C)[C@@H](OC(=O)N2CCN(C)CC2)/C=C/[C@@H]1C [Compound 113] | 8.2 nM | −80.966% | 49 nM | 41.8 nM | −73.107% |  |  |  |  |  |  |  |  | 
